The text below walks through data of paper PMC3667592 (Journal of medicinal chemistry, 2013).

SMILES strings stand for the structures. Marks after values point to notes of the source that are not given here.

The nature of assay [1]: Ligand binding, UV-difference titration. The note with it: binding to N,N′-Ac2-L-Lys-D-Ala-D-Ala (3).
The conditions of assay [2]: binding to N,N′-Ac2-L-Lys-D-Ala-D-Ala (3), ref 8a; cited from earlier work.
The conditions of assay [3]: reprogrammed precursor terminus D-Ala-D-Lac; cited from earlier work.
Another assay has as its system VanA and VanB VRE. Particulars: cited from earlier work.

As for `CN[C@H](CC(C)C)C(=O)N[C@H]1C(=O)N[C@@H](CC(N)=O)C(=O)N[C@H]2C(=O)N[C@H]3C(=O)N[C@H](C(=O)N[C@H](C(=O)O)c4cc(O)cc(O)c4-c4cc3ccc4O)[C@H](O)c3ccc(c(Cl)c3)Oc3cc2cc(c3O[C@@H]2O[C@H](CO)[C@@H](O)[C@H](O)[C@H]2O[C@H]2C[C@](C)(N)[C@H](O)[C@H](C)O2)Oc2ccc(cc2Cl)[C@H]1O` [Vancomycin (1), Vancomycin], the “Association constant for 3, Ka” value in assay [1] is 1.8 M^−1 (× 10^5). In assay [2], the “Association constant for 3, Ka (value in parentheses)” value is listed as 2.3–3.9 M^−1 (× 10^5). Moreover, the “Fold decrease in antibiotic binding affinity (D-Ala-D-Lac vs D-Ala-D-Ala)” value in assay [3] is 1000 fold. Further, the “Fold drop in antimicrobial activity against resistant strains” value with VanA and VanB VRE is listed as 1000 fold.
Regarding `CN[C@H](CC(C)C)C(=O)N[C@H]1C(=O)N[C@@H](CC(N)=O)C(=O)N[C@H]2C(=O)N[C@H]3C(=O)N[C@H](C(=O)N[C@H](C(=O)O)c4cc(O)cc(O)c4-c4cc3ccc4O)[C@H](O)c3ccc(c(Cl)c3)Oc3cc2cc(c3O)Oc2ccc(cc2Cl)[C@H]1O` [Vancomycin Aglycon (2), Vancomycin Aglycon], in assay [1], the “Association constant for 3, Ka” value is recorded as 1.4 M^−1 (× 10^5).
